Measured values as given in paper PMC6934184, “Selective DNA-PKcs inhibition extends the therapeutic index of localized radiotherapy and chemotherapy” (The Journal of Clinical Investigation, 2019).

Biological target: T1, GSK3A (GSK3 alpha) (Homo sapiens, UniProt P49840)
T1 construct: purchased Thermo Fisher Scientific (Life Technologies) SelectScreen
Assay: SelectScreen Z'LYTE
Format: biochemical
In short: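 SelectScreen broad panel; activity (Z'LYTE, Adapta) plus binding formats. ATP: Km app for CSF1R Z'LYTE; 10 for CAMK1 Adapta. Readout = % per kinase.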

T1 sequence (P49840 whole entry): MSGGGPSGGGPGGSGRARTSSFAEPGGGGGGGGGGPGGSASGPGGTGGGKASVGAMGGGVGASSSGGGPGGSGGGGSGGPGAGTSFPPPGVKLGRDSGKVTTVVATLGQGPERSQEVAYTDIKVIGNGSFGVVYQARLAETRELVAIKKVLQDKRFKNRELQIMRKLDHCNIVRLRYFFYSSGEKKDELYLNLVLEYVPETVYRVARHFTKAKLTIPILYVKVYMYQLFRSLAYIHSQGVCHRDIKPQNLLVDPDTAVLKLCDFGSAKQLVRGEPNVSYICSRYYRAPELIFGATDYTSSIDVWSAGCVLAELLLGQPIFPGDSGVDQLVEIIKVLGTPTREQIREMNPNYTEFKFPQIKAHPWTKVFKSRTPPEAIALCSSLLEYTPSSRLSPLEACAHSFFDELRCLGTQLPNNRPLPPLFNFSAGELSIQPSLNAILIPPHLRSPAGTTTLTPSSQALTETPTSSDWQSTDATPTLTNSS

With `CN(C(=O)CN1CCOCC1)c1ccc2sc3c(-c4cccc5c(=O)cc(N6CC7CCC(C6)O7)oc45)cccc3c2c1` [NU5455] the inhibition at 1 µM was -5.5%.
